These results are taken from PubChem BioAssay AID1996.

The structures appear in SMILES notation. ≈ marks a conversion by molar mass, not a printed value. Bounds are passed on as bounds.

For the data set the following is noted: buffer; pH 7.4; 200.0 µM.
As for `COc1cccc(/C=C/C(=O)OCC(=O)NCc2ccc3c(c2)OCO3)c1`, the solubility (kinetic) was found to be 3.3 µg/mL (≈ 8.93 µM).
The figure for `CC(C)(C)c1ccc(-c2nc(N)nc(N)n2)cc1` is 0.9 µg/mL (≈ 3.7 µM); for `O=C(CSc1ncccn1)N1CCCC1` it is more than 33.5 µg/mL.
Next, `CC(C)CC1NC(=O)N(CC(=O)Nc2ccc3c(c2)CCC3)C1=O` (stereo not drawn): 5.6 µg/mL (≈ 17 µM); `CC(=O)Nc1ccc(S(=O)(=O)NC(C)CCc2ccccc2)cc1` (stereo not drawn): more than 52 µg/mL.
The figure for `CCOC(=O)Cn1c2ccccc2c2nc(C)sc21` is more than 41.2 µg/mL.
For `COc1ccc(OC)c(C(C)NC(=O)C(C)Cc2ccccc2)c1` (stereo not drawn), the solubility (kinetic) was 45.7 µg/mL (≈ 140 µM).
`Cc1cc(C(=O)N/N=C2\CCCC(=O)C2)c(C)o1` returned a solubility (kinetic) of more than 37.2 µg/mL.
Next, `Cc1ccc(S(=O)(=O)n2c(C)nc3ccccc32)cc1`: 2.2 µg/mL (≈ 7.68 µM); `CSc1nc2ccc(NC(=O)c3cccs3)cc2s1`: 2.7 µg/mL (≈ 8.81 µM); `Cc1ccccc1OCC(=O)Nc1ccccc1NC(=O)c1ccco1`: 36.7 µg/mL (≈ 105 µM).
The figure for `COc1ccc(CC(=O)Nc2ccc(N3CCCC3)c(C)c2)cc1` is 8.9 µg/mL (≈ 27.4 µM); for `CC(C)NC(=O)CCCc1c[nH]c2ccccc12` it is more than 36.7 µg/mL.
The compound `[O-][n+]1c(/C=C/c2ccccc2)ccc2ccccc21` yielded a solubility (kinetic) of more than 37.1 µg/mL.
Next, `COc1ccc(/C=C/C(=O)N2CCN(S(=O)(=O)c3ccccc3Br)CC2)cc1OC`: 13.6 µg/mL (≈ 27.5 µM); `COc1ccc(NC(C)=O)cc1NC(=O)c1ccc2ccccc2c1`: 13 µg/mL (≈ 38.9 µM); `CCN(CC)C(=O)Oc1ccc(NC(=O)N2CCOCC2)cc1`: more than 48.2 µg/mL.
The figure for `COc1ccc([N+](=O)[O-])cc1NS(=O)(=O)c1cccc(C(=O)NCCCN2CCCC2=O)c1` is more than 71.5 µg/mL; for `Fc1ccc(NC(=S)Nc2nccs2)cc1` it is 14.9 µg/mL (≈ 58.8 µM).
The compound `COC(=O)c1nc[nH]c1C(=O)OC` gave a kinetic solubility of more than 27.6 µg/mL.
In the case of `CN(CC(=O)Nc1ccc2c(c1)OCCO2)CC(=O)Nc1ccc(F)c(F)c1F`, the solubility (kinetic) was more than 61.4 µg/mL.
The figure for `CCN1CCN(CC2COc3ccccc3O2)CC1.Cl` (stereo not drawn) is more than 50.3 µg/mL.
Next, `Cn1c(=O)c2c(ncn2CC(=O)Nc2nccs2)n(C)c1=O`: 26.1 µg/mL (≈ 81.5 µM); `CC1CCN(CC(O)COC2CC(C)CC(C)(C)C2)CC1.Cl` (stereo not drawn): 45.5 µg/mL; `CC(C)CC(=O)c1c[nH]c(C(=O)NCc2cccnc2)c1`: 30.9 µg/mL (≈ 108 µM).
The figure for `CN(CCN1CCOCC1)Cc1nc(-c2ccccc2)no1` is more than 45.4 µg/mL.
Compound `CCOC(=O)/C(=C/c1ccc(OC(=O)c2ccncc2)cc1)C(C)=O` yielded a solubility (kinetic) of 41.8 µg/mL (≈ 123 µM).
As to `O=C(NCCCc1ccccc1)C1CC1`, the solubility (kinetic) is more than 30.5 µg/mL.
With `O=C1CCc2ccc(OCCCCN3CCN(c4cccc(Cl)c4Cl)CC3)cc2N1`, the kinetic solubility is less than 0.3 µg/mL.
Consider `Cc1ccccc1C(=O)NC(=S)NC1CCS(=O)(=O)C1` (stereo not drawn), for which the kinetic solubility is more than 46.9 µg/mL.
Regarding `COc1ccc(NC(=O)CN(c2c(C)cccc2C)S(C)(=O)=O)cc1`, the kinetic solubility was found to be 48.1 µg/mL (≈ 133 µM).
Next, `CC(=O)NC(CC(=O)NCc1ccncc1)c1ccccc1` (stereo not drawn): more than 44.6 µg/mL.
In the case of `O=c1[nH]c(=S)n(-c2ccccc2)c(O)c1C=NCCN1CCNCC1`, the kinetic solubility is more than 53.9 µg/mL.
The figure for `O=C(CNCc1ccc(Cl)cc1)N1CCc2ccccc2C1` is 36.8 µg/mL (≈ 117 µM); for `COC(=O)c1sccc1NC(=S)N1C(C)CCCC1C` (stereo not drawn) it is 20.3 µg/mL (≈ 65 µM).
Turning to `N#Cc1nc(-c2ccc(F)cc2)oc1N1CCCCC1`, the solubility (kinetic) amounted to 0.9 µg/mL (≈ 3.32 µM).
The figure for `O=C(NCc1ccncc1)C(=O)Nc1ccc2c(c1)OCO2` is 9.5 µg/mL (≈ 31.7 µM).
Consider `Cc1ccc(NC(=O)c2ccc(Cl)nc2)cc1S(=O)(=O)N1CCOCC1`, for which the kinetic solubility was found to be 12.4 µg/mL (≈ 31.3 µM). The solubility kinetic values of the last two compounds are within 1.5-fold of each other.
Next, `COc1cc(NC(=O)CN2C(=O)CN(C)C2=O)c(C)cc1[N+](=O)[O-]`: more than 50.4 µg/mL; `Cc1cc(C)nc(SCC(=O)N2CCc3ccccc32)n1`: 3.4 µg/mL (≈ 11.4 µM).
`COc1ccc(NC(=S)NC2CC3CCC2C3)c(OC)c1` (stereo not drawn) returned a kinetic solubility of 14.8 µg/mL (≈ 48.3 µM). Compared with the last compound, the solubility kinetic is about 4.4-fold higher.
The figure for `COc1cccc(NC(=O)C2CC(=O)N(Cc3ccc(C)cc3)C2)c1` (stereo not drawn) is 9.3 µg/mL (≈ 27.5 µM).
`CNC(=S)Nc1cccc([N+](=O)[O-])c1` returned a kinetic solubility of more than 31.7 µg/mL.
The compound `O=C(O)c1ccc(NCCc2ccc(Cl)cc2)c([N+](=O)[O-])c1` had a solubility (kinetic) of 44.6 µg/mL (≈ 139 µM).
Next, `O=C(O)C(=O)O.OC1(c2ccccc2)CCNC2CCCCC21` (stereo not drawn): more than 48.2 µg/mL; `COc1ccc(-c2nnc(SCC(=O)NC3CC3)o2)cc1`: more than 45.8 µg/mL.
Next, `Cc1ccnc(NC(=O)Cc2c(F)cccc2Cl)c1`: more than 41.8 µg/mL; `CC(=O)Nc1cccc(Oc2nc(C(F)(F)F)nc3ccccc23)c1`: 14 µg/mL (≈ 40.3 µM); `Cc1ccc(-c2nc(=O)[nH]c3ccccc23)cc1`: 25.8 µg/mL (≈ 109 µM).
As to `COC(=O)C1CCN(C(=O)COC(=O)c2cc(S(=O)(=O)N3CCOCC3)ccc2C)CC1`, the kinetic solubility was more than 70.3 µg/mL.
Next, `COc1cc2nc(CN3CCN(S(=O)(=O)c4ccc(Br)cc4)CC3)[nH]c(=O)c2cc1OC`: 17.7 µg/mL (≈ 33.8 µM).
For `COc1cccc(CNc2ccc([N+](=O)[O-])cc2C)c1`, the solubility (kinetic) amounted to 1.3 µg/mL (≈ 4.77 µM).
As to `Nc1ccc(Cl)c(S(=O)(=O)Nc2cccc(Cl)c2)c1`, the solubility (kinetic) was 43.4 µg/mL (≈ 137 µM).
Next, `Cc1ccccc1NC(=O)COC(=O)CC1CCCC1`: more than 41.3 µg/mL; `COc1ccc(NC(=O)COC(C)=O)cc1OC`: more than 38 µg/mL; `Cc1ccc(OCC(=O)NCCCNC(=O)c2ccccn2)cc1C`: 45.4 µg/mL (≈ 133 µM).
Next, `COCCNC(=S)Nc1ccccc1Cc1ccccc1`: 13.7 µg/mL (≈ 45.6 µM); `CCC(=O)N(Cc1cc(=O)[nH]c2ccccc12)c1ccc(C)cc1`: more than 48.1 µg/mL; `Cc1ccc(Cl)cc1NC(=S)NCCCSC1CCCCC1`: 2.5 µg/mL (≈ 7 µM).
The figure for `Cc1ccc(NC(=O)C(=O)c2c[nH]c3ccccc23)cc1` is less than 0.3 µg/mL; for `O=C(Nc1cccc(NC(=O)c2ccccc2)n1)c1ccccc1` it is 16.8 µg/mL (≈ 52.9 µM).
Take `O=C(CCc1c[nH]c2ccccc12)OCc1cccc(C(F)(F)F)c1`: the solubility (kinetic) was found to be 1 µg/mL (≈ 2.88 µM).
For `Cc1ccc(NC(=O)Nc2cccc3ccccc23)cc1`, the kinetic solubility is less than 0.3 µg/mL.
The figure for `O=C(Nc1ccc(CSc2ccccc2)cc1)c1ccco1` is less than 0.7 µg/mL; for `COCCNC(=O)c1ccc2c(c1)C(=O)c1ccccc1-2` it is more than 42.2 µg/mL; for `Nc1cc(=O)[nH]c(=O)n1CCc1ccccc1` it is more than 34.7 µg/mL.
The figure for `CC(=O)C(Cc1ccccc1)NC(=O)CN1CCc2ccccc2C1` (stereo not drawn) is more than 50.5 µg/mL; for `COc1ccc2c(c1OC)C(=O)N(c1ccc(C)cc1)C2` it is 3.2 µg/mL (≈ 11.3 µM); for `O=C1c2cccc3cccc(c23)C(=O)N1c1ccc(O)cc1` it is less than 0.6 µg/mL.
In turn, `CCOc1ccccc1CNCCc1ccc2c(c1)OCO2.Cl` came in with a kinetic solubility of 49.6 µg/mL.
Next, `COc1cc(OC)cc(C(=O)Nc2cccc3cccnc23)c1`: less than 0.3 µg/mL; `CC(OC(=O)CC1CC2CCC1C2)C(=O)Nc1ccc(C(N)=O)cc1` (stereo not drawn): more than 51.7 µg/mL; `COc1cc(CCC(C)NCc2ccccc2)ccc1O` (stereo not drawn): more than 42.8 µg/mL.
The figure for `CN(C)C(=O)N(CCCN1CCOCC1)Cc1cccc2ccccc12` is more than 53.3 µg/mL; for `Cn1cc(C(=O)C(=O)N2CCOCC2)c2ccccc21` it is more than 40.8 µg/mL.
The figure for `CC(CCc1ccccc1)NC(=O)Cc1ccc(Br)cc1` (stereo not drawn) is 2.5 µg/mL (≈ 7.22 µM); for `COc1ccc2c(-c3ccccc3)cc(=S)[nH]c2c1` it is 2.4 µg/mL (≈ 8.98 µM).
`CSc1ccccc1NC(=O)c1csc(C)c1` displayed a solubility (kinetic) of 30 µg/mL (≈ 114 µM).
The figure for `N#Cc1cc2ccccc2nc1N` is more than 25.4 µg/mL; for `Cc1cc(C)cc(NC(=O)c2cccc(NC(=O)c3ccco3)c2)c1` it is 1 µg/mL (≈ 2.99 µM).
The figure for `Cc1cc(Nc2cccc(Cl)c2)nc(-c2ccccc2O)n1` is 0.6 µg/mL (≈ 1.92 µM); for `O=[N+]([O-])c1ccc2nc(Cl)nc(-c3ccccc3)c2c1` it is 4.8 µg/mL (≈ 16.8 µM); for `CN(C(=O)CSc1nccc(=O)[nH]1)C1CCCCC1` it is more than 42.2 µg/mL.
Next, `CCCC(C)NC(=O)C1c2ccccc2Oc2ccccc21` (stereo not drawn): 1.2 µg/mL (≈ 4.06 µM).
`CCOc1ccc(Nc2nc(N)c([N+](=O)[O-])c(N3CCOCC3)n2)cc1` displayed a kinetic solubility of 2.4 µg/mL (≈ 6.66 µM).
Next, `CN(C(=O)c1c[nH]c(=O)cc1C(F)(F)F)c1ccc(Cl)cc1`: 45.9 µg/mL (≈ 139 µM); `CN(C)C(CNC(=O)c1cccc(C#N)c1)c1ccco1` (stereo not drawn): 39.3 µg/mL (≈ 139 µM).
Next, `CC1CC(C)CN(C(=O)C(C)N(C)CC(=O)Nc2ccccc2Cl)C1` (stereo not drawn): more than 54.9 µg/mL; `COC(=O)C(O)(c1ccc(N(C)C)cc1)C(F)(F)F` (stereo not drawn): 38 µg/mL (≈ 137 µM); `O=[N+]([O-])c1ccc(Nc2ccccn2)c([N+](=O)[O-])c1`: 2.7 µg/mL (≈ 10.4 µM).
For `Cc1ccc(NC(=O)Nc2ccc(Cl)c(Cl)c2)nc1`, the kinetic solubility was less than 0.2 µg/mL.
Next, `N#C/C(=C(/O)c1ccc(Cl)cc1)c1nc2ccccc2[nH]1`: less than 0.2 µg/mL; `CC(C)(C)NC(=O)CCCCCCCC(=O)NC(C)(C)C`: more than 44.8 µg/mL.
The figure for `CSc1ccc(C(=O)NCC(=O)O)cc1[N+](=O)[O-]` is more than 40.5 µg/mL; for `O=C(O)C1C2C=CC(C2)C1C(=O)Nc1cccc(C(F)(F)F)c1` (stereo not drawn) it is 10.3 µg/mL (≈ 31.7 µM); for `CO/N=C/C(c1ccc(Cl)nc1)S(=O)(=O)c1ccccc1` (stereo not drawn) it is more than 48.7 µg/mL.
The compound `O=C(NC(=S)NC12CC3CC(CC(C3)C1)C2)c1ccc(F)cc1` displayed a kinetic solubility of 2.3 µg/mL (≈ 6.92 µM).
Next, `Cc1ccc2c(CN3CCCCC3C)cc(=O)oc2c1.Cl` (stereo not drawn): 35.6 µg/mL.
The figure for `Cc1cccc(C(=O)OCC(=O)NC2CC2)c1O` is more than 37.4 µg/mL; for `O=C1CCCN1c1ccc(S(=O)(=O)N2CCCCC2)cc1` it is 22.5 µg/mL (≈ 73 µM); for `O=C(NCc1ccccc1)C1(c2cccc(F)c2)CCCC1` it is 12.2 µg/mL (≈ 41 µM).
The figure for `CCN(CC)S(=O)(=O)c1ccc(N2CCOCC2)c(NC(=O)c2cc(Cl)c3c(c2)OCO3)c1` is 5.2 µg/mL (≈ 10.5 µM); for `COCCNC(=S)N(CCc1c(C)[nH]c2ccc(C)cc12)Cc1ccco1` it is 15.2 µg/mL (≈ 39.4 µM).

The kinetic solubility is solubility judged after dilution from a stock solution rather than from solid.
